Data published in PubChem BioAssay (NCI).
Several values for one entry are separate records, joined by “and”; a condition that tells them apart may be missing. Equal entries are not always repeated.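 Following 48 hours of exposure in 96-well plates, responses at five concentrations were used to interpolate endpoints linearly. GI50 marks 50% less growth. The concentration for full growth arrest is given as TGI.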

Experiments:
Test in all cases: growth of human tumour cells (NCI), 48 h
ACHN renal = test system: ACHN renal
CCRF-CEM leukemia = test system: CCRF-CEM leukemia
HOP-92 NSCLC = test system: HOP-92 NSCLC
HT29 colon = test system: HT29 colon
IGROV1 ovarian = test system: IGROV1 ovarian
K-562 leukemia = test system: K-562 leukemia
M14 melanoma = test system: M14 melanoma
SF-295 CNS = test system: SF-295 CNS
SF-539 CNS = test system: SF-539 CNS
SK-MEL-5 melanoma = test system: SK-MEL-5 melanoma

For `Cc1[nH]nc(C(=O)n2nc(N)c3ccccc32)c1[N+](=O)[O-]`, the GI50 (ACHN renal) was > 100 µM, the TGI (ACHN renal) was > 100 µM and the GI50 (CCRF-CEM leukemia) was 32.2 µM. The TGI (CCRF-CEM leukemia) was > 100 µM, the GI50 (HOP-92 NSCLC) was 56.4 µM and the TGI (HOP-92 NSCLC) was > 100 µM. The GI50 (HT29 colon) was > 100 µM, the TGI (HT29 colon) was > 100 µM and the GI50 (IGROV1 ovarian) was 37.5 µM. For the same compound, the TGI (IGROV1 ovarian) was > 100 µM, the GI50 (K-562 leukemia) was > 100 µM and the TGI (K-562 leukemia) was > 100 µM. The GI50 (M14 melanoma) was > 100 µM, the TGI (M14 melanoma) was > 100 µM and the GI50 (SF-295 CNS) was > 100 µM. For the same compound, the TGI (SF-295 CNS) was > 100 µM, the GI50 (SF-539 CNS) was > 100 µM and the TGI (SF-539 CNS) was > 100 µM. The GI50 (SK-MEL-5 melanoma) was > 100 µM and the TGI (SK-MEL-5 melanoma) was > 100 µM.
Work on `COc1ccc2[nH]c(O)c(C(=Nc3ccc(N(C)C(=O)CN4CCN(C)CC4)cc3)c3ccccc3)c2c1` yielded a GI50 (ACHN renal) of 2.54 µM, a TGI (ACHN renal) of 10.8 µM and a GI50 (CCRF-CEM leukemia) of 2.68 µM. For the same compound, the TGI (CCRF-CEM leukemia) was 10.4 µM, the GI50 (HOP-92 NSCLC) was 0.436 µM and the TGI (HOP-92 NSCLC) was 5.55 µM. The GI50 (HT29 colon) was 0.341 µM, the TGI (HT29 colon) was 10.8 µM and the GI50 (IGROV1 ovarian) was 1.36 µM. It also gave a TGI (IGROV1 ovarian) of 10.1 µM, a GI50 (K-562 leukemia) of 0.609 µM and a TGI (K-562 leukemia) of 13.8 µM. It also gave a GI50 (M14 melanoma) of 1.26 µM, a TGI (M14 melanoma) of 2.89 µM and a GI50 (SF-295 CNS) of 4.65 µM. The TGI (SF-295 CNS) was 15.8 µM, the GI50 (SF-539 CNS) was 1.04 µM and the TGI (SF-539 CNS) was 2.27 µM. For the same compound, the GI50 (SK-MEL-5 melanoma) was 1.75 µM and the TGI (SK-MEL-5 melanoma) was 3.43 µM.
`CCOc1cc(/C=N\Nc2nnc(C)n2N)c(C)cc1N(CCCl)CCCl` was tested, and the GI50 (ACHN renal) was 0.805 µM, the TGI (ACHN renal) was > 100 µM and the GI50 (CCRF-CEM leukemia) was 0.655 µM. For the same compound, the TGI (CCRF-CEM leukemia) was 32.5 µM, the GI50 (HOP-92 NSCLC) was 0.163 µM and the TGI (HOP-92 NSCLC) was 1.12 µM. It also gave a GI50 (HT29 colon) of 0.648 µM, a TGI (HT29 colon) of 7.17 µM and a GI50 (IGROV1 ovarian) of 1.96 µM. For the same compound, the TGI (IGROV1 ovarian) was > 100 µM, the GI50 (K-562 leukemia) was 0.646 µM and the TGI (K-562 leukemia) was > 100 µM. For the same compound, the GI50 (M14 melanoma) was 0.776 µM, the TGI (M14 melanoma) was > 49.8 µM and the GI50 (SF-295 CNS) was 1.13 µM. It also gave a TGI (SF-295 CNS) of 6.23 µM, a GI50 (SF-539 CNS) of 1.29 µM and a TGI (SF-539 CNS) of 17.4 µM. For the same compound, the GI50 (SK-MEL-5 melanoma) was 0.259 µM and the TGI (SK-MEL-5 melanoma) was 1.05 µM.
For `N#CCCN(CCC#N)c1ccc(C(Sc2ccccc2)C(NC(=O)c2cc([N+](=O)[O-])ccc2Cl)C(=O)Sc2ccccc2)cc1` (stereo not given), the GI50 (ACHN renal) was 2.81 µM, the TGI (ACHN renal) was 16.3 µM and the TGI (CCRF-CEM leukemia) was 0.765 µM and 0.479 µM. For the same compound, the TGI (HOP-92 NSCLC) was 18.7 µM, the GI50 (HT29 colon) was 2.59 µM and the TGI (HT29 colon) was 7.58 µM. The GI50 (IGROV1 ovarian) was 1.49 µM, the TGI (IGROV1 ovarian) was 8.99 µM and 4.2 µM and the GI50 (K-562 leukemia) was 1.71 µM. For the same compound, the TGI (K-562 leukemia) was 7.42 µM and 6.69 µM, the GI50 (M14 melanoma) was 1.61 µM and the TGI (M14 melanoma) was 4.07 µM. The TGI (SF-295 CNS) was 13.1 µM, the TGI (SF-539 CNS) was 4.11 µM and 3.79 µM and the TGI (SK-MEL-5 melanoma) was 15.6 µM.
In the case of `Cc1cccc(C)c1NC(=O)C1C(=O)N(c2c(C)cccc2C)C(=O)/C1=N\NC(N)=S` (stereo not given), the TGI (ACHN renal) is reported as > 100 µM, the TGI (CCRF-CEM leukemia) is reported as > 100 µM and the TGI (HOP-92 NSCLC) is reported as > 100 µM. For the same compound, the TGI (HT29 colon) was > 100 µM, the TGI (IGROV1 ovarian) was > 100 µM and the TGI (K-562 leukemia) was > 100 µM. The TGI (M14 melanoma) was > 100 µM, the TGI (SF-295 CNS) was > 100 µM and the TGI (SF-539 CNS) was > 100 µM. For the same compound, the TGI (SK-MEL-5 melanoma) was > 100 µM.
With `COC(=O)C(=O)C(C(=O)C(=O)Nc1cccc(C(C)=O)c1)c1nc2ccccc2[nH]c1=O` (stereo not given) the TGI (ACHN renal) was > 100 µM, the TGI (CCRF-CEM leukemia) was > 100 µM and the TGI (HOP-92 NSCLC) was > 100 µM. The TGI (HT29 colon) was > 100 µM, the TGI (IGROV1 ovarian) was > 100 µM and the TGI (K-562 leukemia) was > 100 µM. For the same compound, the TGI (M14 melanoma) was > 100 µM, the TGI (SF-295 CNS) was > 100 µM and the TGI (SF-539 CNS) was > 100 µM. For the same compound, the TGI (SK-MEL-5 melanoma) was > 100 µM.
In the case of `COc1ccc(-c2oc3c(OC)c(OC)c(OC)c(OC)c3c(=O)c2OC)cc1OC`, the TGI (ACHN renal) is reported as > 100 µM, the TGI (CCRF-CEM leukemia) is reported as > 100 µM and the TGI (HOP-92 NSCLC) is reported as 0.0897 µM. The TGI (HT29 colon) was 64.8 µM, the TGI (IGROV1 ovarian) was > 100 µM and the TGI (K-562 leukemia) was > 100 µM. The TGI (M14 melanoma) was > 100 µM, the TGI (SF-295 CNS) was > 100 µM and the TGI (SF-539 CNS) was > 100 µM. It also gave a TGI (SK-MEL-5 melanoma) of 66.3 µM.
